Reference: patent publication US6858632B2, “Derivatives of isosorbide mononitrate and its use as vasodilating agents with reduced tolerance” (Lacer, S.A., priority 1998, dated 2005)
“Also recorded” adds a separate entry of the source. Structures can show the parent of a compound that is named as a salt. Where two headings read alike, the source gives them in different places.

Experiments:
[1] = test system: arterial segments of the rats; experiment: Assay of tolerance (ex vivo vasodilatation of arterial segments after subcutaneous administration for three days); assay type: in vivo; details: for development of tolerance (in words): rats, 10 mg/Kg s.c. each eight hours for three days
Procedure: The different compounds tested are subcutaneously administered to rats at a dose of 10 mg/Kg for three days, each eight hours, and the assay is then done ex vivo to test the capacity to vasodilate the arterial segments of the rats after the subcutaneous administration of the compound.
The method followed is substantially the same as described in following references: • De Garavilla, L., et al. Eur. J. Pharmacol. 1996; 313:89-96. • Keith, R. A., et al. J. Pharmacol. Exp. Ther. 1982; 221:525-531.
The different compounds are tested at 5 different concentrations, at a concentration range from 0.001 to 10 mM, using from 6 to 9 arterial rings for each compound. The obtained results are compared to those from the isosorbide 5-mononitrate, which is used as reference product, and with those obtained from the animals wherein there have not been administered any compound.

[2] = test system: arterial ring previously contracted with 1 μM of Norepinephrine; experiment: Test of vasodilatation (arterial rings pre-contracted with norepinephrine); details: for EC50: read-out: CE50 (concentration effective 50), vasodilatation of 50% of the arterial ring (average ± SD)
Procedure: The method used in the assays is substantially the same as described in following references: • Furchgot, R. F. “Methods in nitric oxide research”. Feelisch & Stamler eds. John Wiley & Sons, Chichester, England, pp 567-581. • Trongvanichnam, K, et al. Jpn J. Pharmacol. 1996; 71:167-173. • Salas, E., et al. Eur. J. Pharmacol. 1994; 258:47-55.
The different compounds are tested at 5 different concentrations, at a concentration range from 0.001 to 10 mM, using from 6 to 9 arterial rings for each compound. The obtained results are compared to those from the isosorbide 5-mononitrate, which is used as reference product.
The results are shown in table 1 below and are provided as CE50 (concentration effective 50), which is the concentration of each of the tested compounds wherein there is produced a vasodilatation of 50% of the arterial ring previously contracted with 1 μM of Norepinephrine.

[3] = arterial ring previously contracted with 1 μM Norepinephrine, 6 to 9 rings, 0.001 to 10 mM

Structure (SMILES) | EC50 ([1]; Rattus norvegicus, sc, 72 h, read-out: CE50, animals without any compound administrated during three days (Group A) (average ± SD)) [µM] | EC50 at 10 mg/kg ([1]; Rattus norvegicus, sc, read-out: CE50, animals with compound administrated during three days (Group B) (average ± SD)) [µM] | development of tolerance (in words) [1] | EC50 [2] [µM] | vasodilating activity compared with the reference product (in words) ([2]; reference: isosorbide 5-mononitrate) | EC50 ([1]; Rattus norvegicus, sc, 72 h, Group A: rats not given any compound, ex vivo arterial rings, read-out: CE50, animals without any compound administrated during three days (Group A) (average ± SD)) [µM] | EC50 at 10 mg/kg ([1]; Rattus norvegicus, sc, Group B: rats given compound subcutaneously, 10 mg/Kg each eight hours for three days, ex vivo arterial rings, read-out: CE50, animals with compound administrated during three days (Group B) (average ± SD)) [µM] | development of tolerance (in words) ([1]; 10 mg/kg) | EC50 [2, 3] [µM] | EC50 ([1]; Group A: rats not given any compound, ex vivo arterial rings, read-out: CE50, animals without any compound administrated during three days (Group A) (average ± SD)) [µM] | CE50 in treated animals relative to CE50 in not treated animals (times) ([1]; Group B versus Group A) | EC50 ([1]; Group B: rats given compound subcutaneously, 10 mg/Kg each eight hours for three days, ex vivo arterial rings, read-out: CE50, animals with compound administrated during three days (Group B) (average ± SD)) [µM]
CCSc1ncccc1C(=O)O[C@H]1CO[C@H]2[C@@H]1OC[C@H]2O[N+](=O)[O-] [Compound 1, isosorbide 2-(2′-ethylthio)nicotinate 5-mononitrate hydrochloride] | 130 ± 10 | 590 ± 100 | development of less tolerance as compared to the reference product | 130 ± 10 | superior to that of the reference product |  |  |  |  |  |  | 
CC(=O)S[C@H]1CO[C@H]2[C@@H]1OC[C@H]2O[N+](=O)[O-] [Compound 5, 2-acetylmercaptoisosorbide 5-mononitrate] |  |  |  |  |  | 950 ± 100 | 990 ± 100 | development of less tolerance as compared to the reference product; also recorded: practically null | 950 ± 100 |  |  | 
O=[N+]([O-])O[C@@H]1CO[C@H]2[C@@H]1OC[C@@H]2O [isosorbide 5-mononitrate, reference compound] |  |  | strong developments of tolerance |  |  |  |  |  | 920 ± 200 | 920 ± 200 | seven | 6500 ± 1500
